Experimental data published in US20090270352A1, “Tenofovir Disoproxil Hemi-Fumaric Acid Co-Crystal” (ULTIMORPHIX TECHNOLOGIES B.V., priority 2007, published 2009).
Counter-ions that a name gives are not always drawn.

Assay: Dynamic Vapour Sorption (DVS) moisture sorption isotherm
Assay type: physicochemical
Details: for total uptake of water vapours: DVS, 25° C., relative humidity 0% to 95% in steps of 5%, 1 h per step, sorption-desorption cycle
Protocol: Moisture sorption isotherms were measured using a DVS-1 system of Surface Measurement Systems (London, UK). Differences in moisture uptake of various forms of a solid material indicate differences in the relative stabilities of the various solid forms for increasing relative humidity. The experiment was carried out at a constant temperature of 25° C.
A sample of about 11.5 mg of form TDFA 2:1 was spread in the DVS pan. The sample was dried at 0% RH for 7 h. Subsequently the relative humidity of the chamber was increased in steps of 5% units from 0% to 95% in order to monitor the sorption of water vapours. The samples remained in each of the steps for 1 h. Following, desorption was monitored by decreasing the relative humidity to 0% in steps of 5% units and remaining at each step for 1 h. The total uptake of water vapours was about 0.8%, which is line with the industry standard for hygroscopicity. In a similar DVS experiment using the starting material as purchased, the total vapour intake was about 4%, which is undesirable in formulation and requires additional measures.

SMILES | total uptake of water vapours | changes in the structure by XRPD at the end of the DVS experiment (solid material measured by XRPD after the DVS sorption-desorption cycle (FIG. 4))
CC(C)OC(=O)OCOP(=O)(CO[C@H](C)Cn1cnc2c(N)ncnc21)OCOC(=O)OC(C)C.CC(C)OC(=O)OCOP(=O)(CO[C@H](C)Cn1cnc2c(N)ncnc21)OCOC(=O)OC(C)C.O=C(O)/C=C/C(=O)O [TDFA 2:1, co-crystal of tenofovir disoproxil and fumaric acid in a 2:1 molar ratio] | about 0.8% | no any changes in the structure
CC(C)OC(=O)OCOP(=O)(CO[C@H](C)Cn1cnc2c(N)ncnc21)OCOC(=O)OC(C)C [starting material, 9-[(R)-2-[[bis[[(isopropoxycarbonyl)oxy]methoxy]phosphinyl]-methoxy]propyl] adenine fumarate (1:1), reference compound] | about 4% | –
